Source: US20140275281A1, “Geranylgeranyl acetone and derivatives thereof for intranasal administration” (COYOTE PHARMACEUTICALS, INC., priority 2013, published 2014)

Assay: pharmacological activity of GGA isomers (test not described)
Settings: at low concentrations; statement in words only, no data given

**Q.** Which pharmacological activity does the source give for `CC(=O)CC/C=C(/C)CC/C=C(\C)CC/C=C(\C)CCC=C(C)C` (single isomer, unassigned) [cis-isomer of GGA, 5Z, 9E, 13E geranylgeranyl acetone] here?
**A.** at best of minimal activity

**Q.** With `CC(=O)CC/C=C(\C)CC/C=C(\C)CC/C=C(\C)CCC=C(C)C` (single isomer, unassigned) [trans-isomer of GGA, trans-GGA] as the compound, how does the pharmacological activity read?
**A.** pharmacologically active
